Measurements: patent US6955907B1, “Alkaline, protease VapK suitable for laundry detergent, VapK gene, recombinant expression vector, and transformed microorganisms” (priority 1999, dated 2005)
“Also recorded” adds a separate entry of the source.

Columns and labels:
protease VapK [1] = assay: Resistance of the protease VapK to surfactants (N-succinyl-ala-ala-pro-phe-p-nitroanilide substrate); assay type: biochemical, Vibrio metschnikovii KS1; conditions: for Relative Residual Activity (%): 25° C. for 25 minutes, relative to activity without surfactant
Description: In addition, the resistance of the protease VapK to various surfactants was tested. The enzyme sample was appropriately diluted in distilled water. The diluted solution was mixed with each surfactant in the same ratio. The mixture was reacted at 25° C. for 25 minutes. A substrate solution of 5 mM N-succinyl-ala-ala-pro-phe-p-nitroanilide in 1 M tris-HCl, pH 9.0 was added to the reaction mixture in the ratio of 1 to 10. The reaction mixture was reacted at 25° C. for 30 minutes. The optical density of the reaction mixture was measured at 410 nm to determine the enzymatic activity of the protease VapK.

protease VapK [2] = assay: Effects of inhibitors on the activity of the protease VapK; assay type: biochemical, Vibrio metschnikovii KS1
Description: (§1) The activity of the alkaline protease was determined by the method of Yanagida et al with minor modifications. The reaction mixture was prepared by mixing 100 mM sodium carbonate solution with the supernatant formed after centrifuging the culture broth at 6,000 rpm for 15 minutes. 0.5 ml of the fermentation broth was mixed with 2.5 ml of 1% prewarmed casein solution in 100 mM sodium carbonate buffer (pH 10.5). The resulting mixture was incubated at 37° C. for 10 minutes. The reaction was terminated by adding a solution consisting 0.22 M trichloroacetic acid, 0.22 M sodium acetate and 0.22 M acetic acid. The reaction mixture was placed on ice for 10 minutes followed by centrifugation. 1 ml of the supernatant was mixed with 9 ml of distilled water. The optical density (O.D.) was measured at 280 nm. The result is indicated as unit. One unit of the enzyme is defined as the amount of protein which produces an increase of 0.1 absorbance unit under the assay conditions.

[3] = assay type: biochemical
Excerpt: It can be seen from the above results that the vapk gene contained in the recombinant plasmid pSB1 was expressed in E. coli HB 101 and the expressed protease VapK was secreted extracellularly. […] (FIG. 9).

casein = assay: Alkaline protease activity of culture broth (casein method of Yanagida et al, modified); assay type: biochemical
Description: as §1
E. coil HB101 harboring the plasmid pSB1 was cultured in an LB medium. The culture broth was recovered and subjected to electrophoresis. As a result (FIG. 8), the expressed protease VapK was detected at the 27 kDa band. In addition, the proteolytic activity of the enzyme was measured.

[4] = inhibitor 1 mM, pre-reacted 20 minutes at 4° C.
[5] = inhibitor 1 mM, pre-reacted 20 minutes at 20° C.

Molecule: Polyoxyethylene Alkylether [Polyoxyethylene Alkylether (EO = 15 mol)]
- Relative Residual Activity (%) (protease VapK [1]; surfactant 30000 ppm): >100%

Molecule: N[C@@H](CS)C(=O)O [L-cysteine]
- Relative Activity (%) (protease VapK [2]; [4]): 99%
- Relative Activity (%) (protease VapK [2]; [5]): 100%

Molecule: CCCCCCCCCCCCOS(=O)(=O)[O-].[Na+] [SDS, sodium dodecyl sulfate]
- Relative Residual Activity (%) (protease VapK [1]; surfactant 1000 ppm): >100%
- Relative Residual Activity (%) (protease VapK [1]; surfactant 1500 ppm): <70%

Molecule: O=C(O)CN(CCN(CC(=O)O)CC(=O)O)CC(=O)O [EDTA, ethylenediamine tetraacetic acid]
- Relative Activity (%) (protease VapK [2]; inhibitor 100 mM, pre-reacted 20 minutes at 4° C.): 86%
- Relative Activity (%) (protease VapK [2]; inhibitor 100 mM, pre-reacted 20 minutes at 20° C.): 100%

Molecule: O=S(=O)(F)Cc1ccccc1 [PMSF, phenylmethanesulfonyl fluoride]
- inhibition of the enzymatic activity of the protease VapK (in words) (protease VapK [2]): inhibited
- Relative Activity (%) (protease VapK [2]; [4]): 6%
- Relative Activity (%) (protease VapK [2]; [5]): 13%

Molecule: Sodium-α-olefin sulfonate [AOS]
- Relative Residual Activity (%) (protease VapK [1]; surfactant 10000 ppm): >100%
- Relative Residual Activity (%) (protease VapK [1]; surfactant 15000 ppm): >70%

Molecule: O=C(O)CN(CCOCCOCCN(CC(=O)O)CC(=O)O)CC(=O)O [EGTA, ethyleneglycol-bis(β-aminoethyl ether)N,N,N′,N′-tetraacetic acid]
- Relative Activity (%) (protease VapK [2]; [4]): 100%
- Relative Activity (%) (protease VapK [2]; [5]): 100%

B1: VapK: alkaline serine protease of 27 kDa produced by Vibrio metschnikovii KS1, amino acid sequence SEQ ID NO. 1 (protein, listed as Vibrio metschnikovii)
chain: MFKKNVNRTVLAGLLLPTSISLAIASQLKDQEVPSFTPSVAVENHQTEQRYFVTYVPGATSGPMRMSQNGLTETDFSLQKAADILSTQQVTVINHLESLHTSVVRVTPTQAKQLLDNADVAMIEVDPIRYLFDAEIEPYAQQTPYGIRMVQADQLSDVYAANRKVCVIDSGYLRNHVDLPSAGVTGSTFSGHGSWFTDGNGHGTHVAGTIVALDNNVGVVGVLPSGLVGLHNVKIFNDSGVWTRASDLIQAIQSCQSAGSHVVNMSLGGSQGSVTEQKPMRNFYQQGMLLVAAAGNSGNSGFSYPASYDAVVSVAAVNSSGNVANFSQFNSQVELSAPGVGVLSTGNNGGYLSYSGTSMASPHVAGVAALVWSHFPQCRPERIRQSLSQTALDRGAAGRDNFYGWGIVQARRAYNWLSRNGC
- influence of temperature on stability [3]: influenced slightly
- pH of optimum activity [3]: 10.5
- stability over pH [3]: stability in the entire pH range
- temperature of optimum activity [3]: 50 °C
- resistance / stability to surfactants (in words) (protease VapK [1]; surfactants such as LAS, SDS, AOS, polyoxyethylene alkylether): very resistant; also recorded: high resistance; also recorded: very stable
- Activity (proteolytic activity of expressed Vap K) (casein; Strain E. coli HB 101 harboring plasmid pSB1, LB medium culture broth): 30.3 unit/ml
- Activity (proteolytic activity of expressed Vap K) (casein; Strain Vibrio metschnikovii KS1, culture broth): 956.2 unit/ml
